# “Also recorded” adds a separate entry of the source.
# What was measured:
# [1] = system: Biliary Duct Ligation (BDL) model; settings: 4-MU; cited from earlier work
# EAE = settings: 4-MU treatment; cited from earlier work
# [2] = in vivo, cited from earlier work
# DORmO mice = assay: Onset of diabetes in DORmO mice; assay type: in vivo
# Source text: In proof-of-principle studies, 12 candidate esters of 4-MU and 4 candidate esters of 4-MUG were generated and the conversion of these compounds into 4-MU in buffer containing bovin serum was examined. […] Compounds A and B were individually administered to 8 week old DORmO mice. Compound B, butyl-4-MUG, delayed diabetes onset by one month when compared to Compound A. In contrast, mice fed Compound A, ethyl-4-MUG, developed diabetes at 12 weeks of age, at the same time as untreated DORmO mice. […] Briefly, to determine that HA accumulates in the pancreatic islets and creates a permissive environment for autoimmune attacks during autoimmune diabetes disease progression, the DORmO double transgenic mouse model of autoimmune diabetes was used. DORmO mice predictably develop autoimmune diabetes because they are bred to have both a target antigen on their insulin producing beta-cells as well as an immune system that specifically recognizes that antigen. DORmO mice are the result of a cross between RIPmOVA mice (a strain that carries a gene specific for hen egg ovalbumin (OVA) that is only expressed on beta-cells, emulating the auto-antigen) and DO11.10 mice (a strain that carries a T-cell receptor transgene specific for OVA, emulating auto-reactive CD4+ T cells). DORmO mice spontaneously develop autoimmune insulitis starting at four weeks of age and all animals become diabetic (hyperglycemia >200 mg/dl) by 20 weeks of age (Wesley, J. D., et al., J. Immunol. 185, 4760-4768 (2010). Beginning at four weeks of age, mice were weighed weekly as well as bled via the tail vein for the determination of their blood glucose level using a Contour blood glucose meter and blood glucose monitoring strips (Bayer Healthcare). When two consecutive blood glucose readings of 250 mg/dL were recorded, animals were considered diabetic. When two consecutive blood glucose readings of 300 mg/dL were recorded, animals were euthanized. For the in vivo part the oral delivery in the drinking water was the same as for 4-MUG. […]
# acute lung injury = settings: 4-MU treatment; cited from earlier work
# [3] = system: DORmO and NOD mouse models; settings: 4-MU treatment; cited from earlier work
# obese, diabetic mice = settings: 4-MU treatment; cited from earlier work
# [4] = system: collagen-induced arthritis model; settings: 4-MU treatment; cited from earlier work
# ApoE-deficient mice = settings: 4-MU treatment, high-fat diet; cited from earlier work
# [5] = Serum drug concentration in mice by HPLC-MS; assay type: in vivo; settings: 4-MUG in drinking water at 5%, 0.325 mg/mouse/day
# Procedure: The 4-MU (Alfa Aesar) was pressed into the mouse chow by TestDiet® and irradiated before shipment. This chow formulation delivered 250 mg/mouse/day, yielding a serum drug concentration of 640.3±17.2 nmol/L in mice, as measured by HPLC-MS. 4-MUG ([…]) was distributed in the drinking water of the mice at a 5% concentration which should deliver 0.325 mg/mouse/day, yielding a serum drug concentration of 357.1±72.6 ng/mL in mice, as measured by HPLC-MS. Mice were initiated on 4-MU and 4-MUG at five, eight or twelve weeks of age, unless otherwise noted, and were maintained on this diet until they were euthanized, unless otherwise noted. For analysis of Foxp3+ regulatory T cell numbers in naïve mice, mice were treated daily with 0.5 mg of 4-MU or 1.0 mg 4-MUG in 200 μl 0.08% carboxymethylcellulose in saline by intraperitoneal (i.p.) injection.
# HA synthesis = assay: Hyaluronan (HA) ELISA of B16F10 cell cultures, inhibition of HA synthesis; assay type: cell-based, murine; settings: cells cultured 24-72 hours, HA in ELISA-like assay, normalized
# Procedure: B16F10 is a murine melanoma cell line. […] The cells were cultured at 37° C. temperature and an atmosphere of 95% air and 5% carbon dioxide. Cells were cultured in DMEM plus 10% FBS. For the 4-MUG ester experiments, cells were seeded in 48-well plates, at a density of 10,000 cells per well and cultured for 24-72 hours. 4-MU, 4-MUG and the 4-MUG esters were diluted 1:1000 from their stock concentration and added to the cell medium in their final μM concentrations. For the analysis, the cells and the cell supernatant were collected at the end of each experiment and stored at −20° C. until further use. 48-well plates from previous experiments were thawed and 200 μL cell lysis buffer was added to each well. Cells were incubated for 15 minutes at room temperature. The whole lysate was transferred into a 96-well v-bottom plate and centrifuged at 3500 g for 20 minutes at 4° C. After spinning 25 μL from each well was transferred into a flat-bottom 96-well plate and stored until further use. Cell lysis buffer contains Tris-HCl, EDTA, SDS, MgCl2 and Super Nucleasis®. Protein measurement was performed by using the Pierce BCA Protein Assay Kit® (Thermo Scientific) according to the manufacturer instructions. The BCA Protein assay is based on bicinchoninic acid (BCA) for the colorimetric detection and quantitation of total protein. This method combines a biuret reaction (reduction of Cu2+ to Cu1+ by protein in an alkaline medium) with a highly and selective colorimetric detection of the cuprous cation (Cu1+) with the help of bicinchoninic acid. A purple-colored reaction product is formed by the chelation of two BCA molecules with one cuprous ion. This complex has a strong absorbance at 562 nm. The identification of HA in the samples is achieved by utilizing a highly specific HA binding protein (HABP) probe that interacts with HA. […] The HA concentration in the tissue is determined by using an ELISA-like assay. […] The plate was read at 405 nm and the concentrations were calculated according to the standards.
# [6] = system: FoxP3+ regulatory T-cells; assay: Induction of FoxP3+ regulatory T-cells in vivo; settings: mice
# Procedure: The 4-MU (Alfa Aesar) was pressed into the mouse chow by TestDiet® and irradiated before shipment. This chow formulation delivered 250 mg/mouse/day, yielding a serum drug concentration of 640.3±17.2 nmol/L in mice, as measured by HPLC-MS. 4-MUG (ChemImpex) was distributed in the drinking water of the mice at a 5% concentration which should deliver 0.325 mg/mouse/day, yielding a serum drug concentration of 357.1±72.6 ng/mL in mice, as measured by HPLC-MS. Mice were initiated on 4-MU and 4-MUG at five, eight or twelve weeks of age, unless otherwise noted, and were maintained on this diet until they were euthanized, unless otherwise noted. For analysis of Foxp3+ regulatory T cell numbers in naïve mice, mice were treated daily with 0.5 mg of 4-MU or 1.0 mg 4-MUG in 200 μl 0.08% carboxymethylcellulose in saline by intraperitoneal (i.p.) injection.
# [7] = after 6 months of treatment; cited from earlier work
smiles,measurement,setting,value
"Cc1cc(=O)oc2cc(O)ccc12 [Compound 4-MU, 4-methylumbelliferone]",fibrosis,[1],reduce fibrosis
same,EAE disease,EAE,prevent and treat disease; also recorded: limit the progression
same,bioavailability,[2]; first-pass glucuronidation,2-3%
same,extraction by the liver,[2],≤ 97%
same,protection from diabetes,DORmO mice; 0.65% 4-MU (approximately 10x less),only partially protective
same,lung injury,acute lung injury,decreased or prevented lung injury
same,progression of autoimmune diabetes,[3],limit the progression
same,glycemia,"obese, diabetic mice",restores normoglycemia
same,disease scores,[4],improved disease scores
same,atherosclerosis,ApoE-deficient mice,worse atherosclerosis
"Cc1cc(=O)oc2cc(O[C@@H]3O[C@H](C(=O)O)[C@@H](O)[C@H](O)[C@H]3O)ccc12 [Compound 4-MUG, 4-methylumbelliferone glucuronide]",serum drug concentration,[5],357.1 ± 72.6 ng/mL
same,inhibition of HA synthesis,HA synthesis,inhibits HA synthesis by human cell lines as well as 4-MU; also recorded: inhibits HA synthesis as effectively as 4-MU
same,fraction of Foxp3+ regulatory T-cells (induction),[6],also has this property in vivo; also recorded: does increase; also recorded: increases
same,numbers of CD3+ T-cells,[6],does not increase
same,numbers of CD4+ T-cells,[6],does not increase
same,numbers of CD25+ T-cells,[6],does not increase
"CCOC(=O)C1O[C@@H](Oc2ccc3c(C)cc(=O)oc3c2)C(O)[C@H](O)[C@@H]1O (stereo partly drawn) [Compound A, 4-methylumbelliferyl β-D-glucuronide ethyl ester]",inhibition of HA synthesis,HA synthesis,best inhibited HA synthesis in vitro
same,age at which mice developed diabetes,"DORmO mice; 8 week old DORmO mice, 0.05% in drinking water",12 weeks
CCCCOC(=O)C1O[C@@H](Oc2ccc3c(C)cc(=O)oc3c2)C(O)[C@H](O)[C@@H]1O (stereo partly drawn) [Compound B],inhibition of HA synthesis,HA synthesis,best inhibited HA synthesis in vitro
same,onset of diabetes,DORmO mice; at 1/100th the dose of 4-MU,delays the onset of diabetes
"C[C@H](CCC(=O)O)[C@H]1CC[C@H]2[C@@H]3[C@@H](O)C[C@@H]4C[C@H](O)CC[C@]4(C)[C@H]3CC[C@]12C [UDCA, ursodeoxycholic acid]",bile concentration of UDCA,[7],up to 70%

# From patent US11278518B2, “Methods of treatment using 4-methylumbelliferone and derivatives thereof” (The Board of Trustees of the Leland Stanford Junior …, priority 2017, dated 2022)
